Measured values from US20180057505A1, “BICYCLIC HETEROARYL COMPOUNDS USEFUL AS INHIBITORS OF THE PAR-2 SIGNALING PATHWAY” (VERTEX PHARMACEUTICALS INCORPORATED, priority 2015, published 2018).

What was measured:
Type in all cases: cell-based
[1] = test system: Thrombin-stimulated Ca2+ response in HT-29 cells; test: Ca FLIPR TETRA assay, ANTAGONIST mode, activator 1 U/mL Thrombin; conditions: HT-29 cells, activator 1 U/mL Thrombin
In short: (§1)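 Antagonist mode, HT-29: cells O/N 37 °C, 1% FBS; calcium 5 dye 45 min 37 °C + 15 min RT; cpd (DMSO, HBSS-diluted) 30 min RT; activator at final conc. (8 μM SLIGKV / 1 U/mL thrombin / 3.1 U/mL trypsin / 0.6 μM UTP); FLIPR Tetra Ca2+ read.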

PAR2 (HT-29 cells) [2] = target: T1, PAR2 (HT-29 cells) (Homo sapiens, UniProt P55085); test: Ca FLIPR TETRA assay, ANTAGONIST mode, activator 3.1 U/mL trypsin; conditions: HT-29 cells, activator 3.1 U/mL trypsin; maximal antagonist concentration per Method (A: 0.1, 1 or 2 μM; B: 50 μM)
T1 construct: host or cells: HT-29
T1 sequence (P55085 26-397): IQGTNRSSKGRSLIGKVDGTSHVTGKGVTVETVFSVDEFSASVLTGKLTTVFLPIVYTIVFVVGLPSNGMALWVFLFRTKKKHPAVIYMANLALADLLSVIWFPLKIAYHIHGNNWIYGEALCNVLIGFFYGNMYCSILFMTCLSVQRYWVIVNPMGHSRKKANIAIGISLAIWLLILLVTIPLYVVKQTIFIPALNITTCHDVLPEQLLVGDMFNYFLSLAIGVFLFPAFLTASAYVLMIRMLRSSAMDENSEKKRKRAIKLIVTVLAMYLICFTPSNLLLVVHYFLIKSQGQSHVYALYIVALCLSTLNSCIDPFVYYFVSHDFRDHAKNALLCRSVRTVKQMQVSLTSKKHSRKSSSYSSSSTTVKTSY
In short: as §1

PAR2 (HT-29 cells) [3] = target: T1, PAR2 (HT-29 cells); test: Ca FLIPR TETRA assay, ANTAGONIST mode, activator 8 μM SLIGKV; conditions: HT-29 cells, activator 8 μM SLIGKV; maximal antagonist concentration per Method (A: 0.1, 1 or 2 μM; B: 50 μM)
In short: as §1

[4] = test system: UTP-stimulated Ca2+ response in HT-29 cells; test: Ca FLIPR TETRA assay, ANTAGONIST mode, activator 0.6 μM UTP; conditions: HT-29 cells, activator 0.6 μM UTP
In short: as §1

SMILES	IC50 ([1]; Homo sapiens) [nM]	IC50 (PAR2 (HT-29 cells) [2]) [nM]	IC50 (PAR2 (HT-29 cells) [3]) [nM]	IC50 ([4]; Homo sapiens) [nM]	IC50 [1] [nM]	IC50 [4] [nM]
CC(C)(C)c1cc(-c2cccc(Cl)c2)nc2cc(C(=O)N3CCNC(=O)C3(C)C)oc12 [Example I-244]	> 2000	27	19	> 2000	–	–
CC[C@@H](C)c1cc(-c2ccc(F)cc2)nc2cc(C(=O)N3CCNC(=O)C3(C)C)oc12 [Example I-245]	> 2000	4.8	2.5	> 2000	–	–
CC[C@H](C)c1cc(-c2ccc(F)cc2)nc2cc(C(=O)N3CCNC(=O)C3(C)C)oc12 [Example I-246]	> 2000	16	11	> 2000	–	–
Cc1cn[nH]c1N1CCN(C(=O)c2cc3nc(-c4ccc(F)cc4)cc(C(C)(C)C)c3o2)C(C)(C)C1=O [Example I-247]	> 2000	20	12	> 2000	–	–
Cc1cc(N2CCN(C(=O)c3cc4nc(-c5ccc(F)cc5)cc(C(C)(C)C)c4o3)C(C)(C)C2=O)[nH]n1 [Example I-248]	> 2000	41	11	> 2000	–	–
CCCC(CC)c1cc(-c2ccc(F)cc2)nc2cc(C(=O)N3CCNC(=O)C3(C)C)oc12 (stereo not shown) [Example I-249]	> 2000	11	4	> 2000	–	–
Cc1n[nH]cc1N1CCN(C(=O)c2cc3nc(-c4ccc(F)cc4)cc(C(C)(C)C)c3o2)C(C)(C)C1=O [Example I-250]	> 2000	51	15	> 2000	–	–
CC1(C)CCC(c2cc(-c3ccc(F)cc3)nc3cc(C(=O)N4CCNC(=O)C4(C)C)oc23)CC1 [Example I-251]	–	> 2000	> 2000	–	> 2000	> 2000
CC(C)(C)c1cc(-c2ccc(Cl)c(F)c2)nc2cc(C(=O)N3CCN(C(=O)c4ccc(C(=O)O)nc4)CC3(C)C)oc12 [Example I-252]	> 2000	140	120	> 2000	–	–
CC(C)(C)c1cc(-c2ccc(Cl)c(F)c2)nc2cc(C(=O)N3CCN(c4cccc(C(=O)O[C@@H]5OC(C(=O)O)[C@@H](O)C(O)[C@@H]5O)n4)CC3(C)C)oc12 (stereo partly drawn) [Example I-253, (3S,5S,6S)-6-[6-[4-[7-tert-butyl-5-(4-chloro-3-fluoro-phenyl)furo[3,2-b]pyridine-2-carbonyl]-3,3-dimethyl-piperazin-1-yl]pyridine-2-carbonyl]oxy-3,4,5-trihydroxy-tetrahydropyran-2-carboxylic acid]	> 2000	9.5	3.5	> 2000	–	–
CC1(C)CCC(c2cc(C(C)(C)C)c3oc(C(=O)N4CCN(C(=O)C5CCC(C(=O)O)O5)CC4(C)C)cc3n2)CC1 (stereo not shown) [Example I-254]	> 2000	20	8.5	> 2000	–	–
CC(C)(C)c1cc(-c2ccc(Cl)c(F)c2)nc2cc(C(=O)N3CCN(C(=O)C4CCC(C(=O)O)O4)CC3(C)C)oc12 (stereo not shown) [Example I-255]	> 2000	13	11	> 2000	–	–
CC(C)(C)c1cc(-c2ccc(Cl)cc2)nc2cc(C(=O)N3CCN(C(=O)C4CCC(C(=O)O)O4)CC3(C)C)oc12 (stereo not shown) [Example I-256]	> 2000	31	22	> 2000	–	–
CC(C)(C)c1cc(-c2ccc(Cl)c(F)c2)nc2cc(C(=O)N3CCN(C(=O)c4cccnc4)CC3(C)C)oc12 [Example I-257]	–	180	210	–	> 2000	> 2000
CC1(C)CCC(c2cc(C(C)(C)C)c3oc(C(=O)N4CCN(c5cn[nH]c5)CC4(C)C)cc3n2)CC1 [Example I-258]	> 2000	17	23	> 2000	–	–
CC(C)(C)c1cc(-c2ccc(Cl)c(F)c2)nc2cc(C(=O)N3CCN(c4cn[nH]c4)CC3(C)C)oc12 [Example I-259]	> 2000	7.9	8	> 2000	–	–
CC(C)(C)c1cc(-c2ccc(Cl)c(F)c2)nc2cc(C(=O)N3CCN(c4cn[nH]c4)C(=O)C3(C)C)oc12 [Example I-260]	> 2000	4.4	3.3	> 2000	–	–
CC(C)(C)c1cc(-c2ccc(Cl)c(F)c2)nc2cc(C(=O)N3CCN(c4ccnc(C(=O)O)c4)CC3(C)C)oc12 [Example I-261]	> 2000	31	45	> 2000	–	–
CC(C)(C)c1cc(-c2ccc(Cl)cc2)nc2cc(C(=O)N3CCN(c4ccncc4)CC3(C)C)oc12 [Example I-262]	> 2000	1900	770	> 2000	–	–
Cc1ccc(N2CCN(C(=O)c3cc4nc(-c5ccc(Cl)cc5)cc(C(C)(C)C)c4o3)C(C)(C)C2)nn1 [Example I-263]	> 2000	3.9	2.6	> 2000	–	–
Cc1cnc(N2CCN(C(=O)c3cc4nc(-c5ccc(Cl)cc5)cc(C(C)(C)C)c4o3)C(C)(C)C2)cn1 [Example I-264]	> 2000	18	15	> 2000	–	–

The next lines start with the values.

IC50 ([1]; Homo sapiens) [nM]	IC50 (PAR2 (HT-29 cells) [2]) [nM]	IC50 (PAR2 (HT-29 cells) [3]) [nM]	IC50 ([4]; Homo sapiens) [nM]	IC50 [1] [nM]	IC50 [4] [nM]	SMILES
> 2000	5.5	5.8	> 2000	–	–	Cc1cncnc1N1CCN(C(=O)c2cc3nc(-c4ccc(Cl)cc4)cc(C(C)(C)C)c3o2)C(C)(C)C1 [Example I-265]
> 2000	33	36	> 2000	–	–	Cc1nccnc1N1CCN(C(=O)c2cc3nc(-c4ccc(Cl)cc4)cc(C(C)(C)C)c3o2)C(C)(C)C1 [Example I-266]
> 2000	25	33	> 2000	–	–	CC(C)(C)c1cc(-c2ccc(Cl)c(F)c2)nc2cc(C(=O)N3CCN(c4cccnc4)CC3(C)C)oc12 [Example I-267, [7-tert-butyl-5-(4-chloro-3-fluoro-phenyl)furo[3,2-b]pyridin-2-yl]-[2,2-dimethyl-4-(3-pyridyl)piperazin-1-yl]methanone]
> 2000	9.4	4.9	> 2000	–	–	COC(=O)c1cccc(N2CCN(C(=O)c3cc4nc(-c5ccc(Cl)c(F)c5)cc(C(C)(C)C)c4o3)C(C)(C)C2)n1 [Example I-268]
> 2000	41	57	> 2000	–	–	CC(C)(C)c1cc(-c2ccc(Cl)cc2)nc2cc(C(=O)N3CCN(c4cccnc4)CC3(C)C)oc12 [Example I-269]
> 2000	51	21	> 2000	–	–	CC1(C)CCC(c2cc(C(C)(C)C)c3oc(C(=O)N4CCN(c5ccccn5)CC4(C)C)cc3n2)CC1 [Example I-270]
> 2000	7.8	7.4	> 2000	–	–	CC(C)(C)c1cc(-c2ccc(Cl)c(F)c2)nc2cc(C(=O)N3CCN(c4ccccn4)CC3(C)C)oc12 [Example I-271]
> 2000	14	21	> 2000	–	–	CC(C)(C)c1cc(-c2ccc(Cl)cc2)nc2cc(C(=O)N3CCN(c4ccccn4)CC3(C)C)oc12 [Example I-272]
> 2000	14	26	> 2000	–	–	CC(C)(C)c1cc(-c2ccc(Cl)cc2)nc2cc(C(=O)N3CCN(c4cn[nH]c4)CC3(C)C)oc12 [Example I-273]
> 2000	34	61	> 2000	–	–	CC(C)(C)c1cc(-c2ccc(Cl)cc2)nc2cc(C(=O)N3CCN(c4ccc(C(=O)O)nc4)CC3(C)C)oc12 [Example I-274]
> 2000	20	16	> 2000	–	–	Cc1cc(-c2cc(C(C)(C)C)c3oc(C(=O)N4CCN(c5cn[nH]c5)C(=O)C4(C)C)cc3n2)ccc1Cl [Example I-275, 4-[7-tert-butyl-5-(4-chloro-3-methyl-phenyl)furo[3,2-b]pyridine-2-carbonyl]-3,3-dimethyl-1-(1H-pyrazol-4-yl)piperazin-2-one]
> 2000	1.8	1.2	> 2000	–	–	Cc1ccnc(N2CCN(C(=O)c3cc4nc(-c5ccc(Cl)c(F)c5)cc(C(C)(C)C)c4o3)C(C)(C)C2=O)n1 [Example I-276]
> 2000	52.5	36	> 2000	–	–	CC(C)(C)c1cc(-c2ccc(Cl)c(F)c2)nc2cc(C(=O)N3CCN(c4cc(C(=O)O)n[nH]4)C(=O)C3(C)C)oc12 [Example I-280, 5-[4-[7-tert-butyl-5-(4-chloro-3-fluoro-phenyl)furo[3,2-b]pyridine-2-carbonyl]-3,3-dimethyl-2-oxo-piperazin-1-yl]-1H-pyrazole-3-carboxylic acid]
